Reference: patent US20200222418A1, “USE OF PHENOTHIAZINE DERIVATIVE IN THE TREATMENT OF INFECTION CAUSED BY BACTERIA CARRYING TYPE IV PILI” (priority 2017, published 2020)

What was measured:
[1] = test system: Nm2C4.3 microcolonies on HBMEC, human bone marrow endothelial cell line; assay: Dispersion of meningococcal microcolonies on HBMEC (vascular colonisation index); type: cell-based, Neisseria meningitidis; details: 30 min, Trifluoperazine 10-40 μM, Gentamicin 150 μg/ml, Cefotaxim 20 μg/ml
Description: Human […] microvascular endothelial cells (HBMEC) were infected with Nm2C4.3 for 1 h 30, treated with Trifluoperazine (10-40 μM) for 30 minutes, before fixation and immunofluorescence analysis using anti-Nm2C4.3 antibody and Alexa Fluor 633 Phalloidin. (A) Representative fluorescence microscopy showing bacterial colony (white dots) formed at the surface of the endothelial cells. (B) Quantification of the bacterial colonization was performed using Image J software.
HBMEC, a human endothelial cell line isolated from […] capillaries (Schweitzer et al., 1997) were grown in Dulbecco's Modified Eagle Medium (DMEM) 4.5 g/L-Glutamax (ThermoFischer) 10% FBS. Cells were grown on Thermanox coverslips coated with gelatin 2% (BD Difco #214340) for 2 days to reach confluency. Cells were then infected with a suspension of Nm2C4.3 (˜10^7 CFU/ml) in DMEM/FBS during 30 minutes to allow bacterial adhesion. Cells were then washed three times with medium to remove non-adherent bacteria and infection was pursued for 1 h 30: adherent bacteria grew at the endothelial cell surface and formed micro-colonies. Trifluoperazine was then added to obtain final concentrations of 10, 20, 30 and 40 μM. After incubation for 30 minutes, cells were washed and fixed in 4% Paraformaldehyde for 10 min, washed three times with PBS, and permeabilized with 0.1% Triton X-100 in PBS for 10 min. Cells were blocked for 30 min with 3% BSA in PBS and were incubated for 2 h with the primary antibodies (Rabbit polyclonal anti-Nm2C4.3 strain, kindly provided by Dr X. Nassif, INEM, Paris). After three washes with PBS, cells were incubated for 1 h with […] anti-rabbit IgG (Jackson ImmunoResearch Laboratories), together with Alexa Fluor 633 Phalloidin (Thermofischer) and DAPI ([…], Sigma Aldrich) to stain Actin and nuclei, respectively. Labelled preparations were mounted in Glycergel media (DAKO) and image acquisitions were performed with a DM16000 microscope (Leica, X40). Quantification was done with ImageJ software (NIH). […]

[2] = test system: meningococcal colonization of the human dermal vasculature; assay: In vivo meningococcal infection of mice engrafted with human skin
[3] = test system: N. meningitidis 2C4.3 aggregates; type: cell-based, Neisseria meningitidis; details: for effect on dispersion of meningococcal aggregates: 0.5 to 80 μM, 30 min
Description: N. meningitidis 2C4.3 was grown in liquid culture at 10^7 CFU/ml for 2 h to form bacterial aggregates and were treated with increasing concentrations of Trifluoperazine (10 to 40 μM), Gentamicin (150 μg/ml) or cefotaxim (20 μg/ml) for 20 minutes and bacterial aggregates were immediately visualized using a phase-contrast microscope. […] (B) Quantification of the bacterial aggregation was performed using Image J software.
N. meningitidis 2C4.3 wild type strain and the isogenic derivative mutant PilT ([…]PiIT) were grown in liquid culture at 10^7 CFU/ml for 2 h to form bacterial aggregates and then treated with 50 μM Trifluoperazine. Time lapse phase-contrast video microscopy was performed to visualize the effect on bacterial aggregates over time. Images were taken at the indicated time points of the video.
N. meningitidis 2C4.3 was grown in liquid culture at 10^7 CFU/ml for 2 h to form bacterial aggregates and were treated with 30 μM Trifluoperazine for 30 minutes to induce bacterial dispersion or PBS as a control. The medium was replaced to remove the Trifluoperazine and the reformation of bacterial aggregates were visualized overtime using a phase-contrast microscope.
Bacteria were grown in suspension for 2 h then Phenothiazine derivatives were added at the indicated concentrations.
N. meninigitidis 2C4.3 strain was grown in suspension in wells of a 24 well plate, containing 1 ml of DMEM medium supplemented with 10% heat-inactivated fetal calf serum. After 2 h of growth, Trifluoperazine (or control vehicle) was added at various concentrations ranging from 10 to 40 μM for 20 min and the bacterial aggregates were visualized over time using a phase-contrast microscope.
N. meninigitidis 2C4.3 strain was grown in suspension in wells of a 24 well plate, containing 1 ml of DMEM medium supplemented with 10% heat-inactivated fetal calf serum. After 2 h of growth, various concentrations (0.5 to 80 μM) of phenothiazine-derivative compounds or control vehicle (PBS or DMSO) were added to the wells for 30 min and the bacterial aggregates were visualized using a phase-contrast microscope. Were tested phenothiazine-derivative compounds of: • the Piperazine group: Trifluoperazine (Sigma #T8516), Fluphenazine (Sigma #F4765), Prochlorperazine (Sigma #P9178) Perphenazine (Sigma #P6402); • the Piperidine group: Thioridazine (Sigma #T9025) and Mesoridazin (Sigma #M4068); • the Aliphatic group: Chlorpromazine (Sigma #C8138), Promazine (Sigma #P6656), Triflupromazine (Sigma #1686003) and levomepromazine (Sigma #L0500000).

CO/N=C(\C(=O)N[C@@H]1C(=O)N2C(C(=O)O)=C(COC(C)=O)CS[C@H]12)c1csc(N)n1 [Cefotaxim]
dispersion of compact meningococcal microcolonies established at the endothelial cell surface [1]: poorly induced the dispersion
increase of inflammatory response [2]: 2 fold
dispersion of bacterial aggregates formed in suspension ([3]; aggregates pre-formed 2 h, 20 min, Trifluoperazine 10-40 μM, Gentamicin 150 μg/ml, Cefotaxim 20 μg/ml): did not significantly induce the dispersion

CN(C)CCCN1c2ccccc2Sc2ccc(Cl)cc21 [Chlorpromazine]
effect on dispersion of meningococcal aggregates [3]: no effects

COc1ccc2c(c1)N(C[C@H](C)CN(C)C)c1ccccc1S2 [Levomepromazine]
effect on dispersion of meningococcal aggregates [3]: no effects

CN(C)CCCN1c2ccccc2Sc2ccccc21 [Promazine]
effect on dispersion of meningococcal aggregates [3]: inhibited bacterial aggregation with better efficacy than Trifluoperazine

CN(C)CCCN1c2ccccc2Sc2ccc(C(F)(F)F)cc21 [Triflupromazine]
effect on dispersion of meningococcal aggregates [3]: no effects
